Data: patent US11912668B2, “GCN2 and perk kinase inhibitors and methods of use thereof” (Deciphera Pharmaceuticals, LLC, priority 2020, dated 2024)
pEC50, pIC50: −log10 of the molar value.

Assays:
[1] = system: ATF4 in HCT116 colorectal cancer cells; assay: HCT116 amino acid starved (-AA) ATF4 assay (Western blot); assay type: cell-based; conditions: Homo sapiens, HCT-116, 4 h
Method in brief: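 HCT116 cells switched to amino-acid-free EBSS (10% dialyzed FBS, 5.5 mM glucose, vitamins) with serial compound dilutions for 4 h at 37° C. Lysates Western blotted for phospho-GCN2 (Thr899), total GCN2, ATF4 and beta-actin; IC50 values derived from quantified bands.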

[2] = biological target: PERK oligomers in HEK-293 cells (Homo sapiens (Human), UniProt Q9NZJ5); assay: Detection of PERK oligomerization using NanoBRET; assay type: cell-based; conditions: read-out: EC50 of stimulation of the formation of PERK oligomers
Description: Constructs for BRET were built using the NanoBRET™ Flexi® PPI Starter System (Promega, Madison, WI). The full-length PERK ORF was obtained from Genscript (Piscataway, NJ). HEK-293 cells (catalog #CRL-1573) were obtained from the American Type Culture Collection (ATTC, Manassas, VA). Cells were grown in MEM medium supplemented with 10% heat-inactivated fetal bovine serum (Invitrogen, Carlsbad, CA) and 1% Penicillin/Streptomycin/L-Glutamine at 37° C., 5% CO2, and 95% humidity. For BRET assays, cells were seeded at a density of 40,000 cells/mL in culture medium in 6-well plates and allowed to attach and recover. Cells were transfected with C-terminally tagged PERK-NLuc and C-terminally tagged PERK-Halo using Lipofectamine LTX (Thermo, Waltham, MA) and allowed to express proteins overnight at 37° C., 5% CO2, and 95% humidity. Cells were then detached from culture dishes using 0.05% trypsin-EDTA, collected, and diluted in assay medium consisting of Opti-MEM® I Reduced Serum Medium supplemented with 4% FBS (Thermo) to 22,000 cells/mL. Cells were dispensed into 96-well cell culture plates and HaloTag® NanoBRET™ 618 Ligand (Promega) was added to a final concentration of 100 nM. […] Donor ([…]) and acceptor (618) emissions were measured on a Synergy Neo2 Multi-Mode Reader (BioTek, Winooski, VT) within 10 min of substrate addition. […]

[3] = system: MV-4-11 acute myeloid leukemia xenograft; assay: MV-4-11 xenograft efficacy model; assay type: in vivo, mice; conditions: 25 mg/kg/day orally for 14 days in combination with Leunase 1000 U/kg
Description: The MV-4-11 acute myeloid leukemia xenograft model was performed in compliance with all the laws, regulations, and guidelines of the National Institutes of Health (NIH) and with the approval of the Animal Care and Use Committee of Crown Bioscience (Taicang, China), an AAALAC accredited facility. Food and water were provided ad libitum. […] Female NOD/SCID (6-9 weeks old; Vital River Laboratories Research Models and Services (Beijing, China)) were inoculated subcutaneously right front flank region with five million cells in Dulbecco's Phosphate Buffered Saline:Matrigel (1:1), using a 27-gauge needle and syringe. When tumor burdens reached 150 mm^3 on average on day 7, mice were randomly assigned into groups such that the mean tumor burden for all groups was within 10% of the overall mean tumor burden for the study population. Groups were treated on days 7-21 as follows: vehicle control (dosed orally and IP to mimic combination group (n=10); Compound 16 dosed orally at 25 mg/kg/day (n=10); Leunase (Kyowa Kirin, Japan) dosed IP at 1000 U/kg/day (n=10); Leunase (Kyowa Kirin, Japan) dosed IP at 1000 U/kg/day (n=10) and Compound 16 dosed orally at 25 mg/kg/day (n=10). Tumor volume and body weight were measured three times per week. Tumor burden (mg) was estimated from caliper measurements by the formula: tumor burden (mg=mm^3)=(length×width^2)/2.

PERK oligomers in HEK-293 cells, sequence (Q9NZJ5 30-1116): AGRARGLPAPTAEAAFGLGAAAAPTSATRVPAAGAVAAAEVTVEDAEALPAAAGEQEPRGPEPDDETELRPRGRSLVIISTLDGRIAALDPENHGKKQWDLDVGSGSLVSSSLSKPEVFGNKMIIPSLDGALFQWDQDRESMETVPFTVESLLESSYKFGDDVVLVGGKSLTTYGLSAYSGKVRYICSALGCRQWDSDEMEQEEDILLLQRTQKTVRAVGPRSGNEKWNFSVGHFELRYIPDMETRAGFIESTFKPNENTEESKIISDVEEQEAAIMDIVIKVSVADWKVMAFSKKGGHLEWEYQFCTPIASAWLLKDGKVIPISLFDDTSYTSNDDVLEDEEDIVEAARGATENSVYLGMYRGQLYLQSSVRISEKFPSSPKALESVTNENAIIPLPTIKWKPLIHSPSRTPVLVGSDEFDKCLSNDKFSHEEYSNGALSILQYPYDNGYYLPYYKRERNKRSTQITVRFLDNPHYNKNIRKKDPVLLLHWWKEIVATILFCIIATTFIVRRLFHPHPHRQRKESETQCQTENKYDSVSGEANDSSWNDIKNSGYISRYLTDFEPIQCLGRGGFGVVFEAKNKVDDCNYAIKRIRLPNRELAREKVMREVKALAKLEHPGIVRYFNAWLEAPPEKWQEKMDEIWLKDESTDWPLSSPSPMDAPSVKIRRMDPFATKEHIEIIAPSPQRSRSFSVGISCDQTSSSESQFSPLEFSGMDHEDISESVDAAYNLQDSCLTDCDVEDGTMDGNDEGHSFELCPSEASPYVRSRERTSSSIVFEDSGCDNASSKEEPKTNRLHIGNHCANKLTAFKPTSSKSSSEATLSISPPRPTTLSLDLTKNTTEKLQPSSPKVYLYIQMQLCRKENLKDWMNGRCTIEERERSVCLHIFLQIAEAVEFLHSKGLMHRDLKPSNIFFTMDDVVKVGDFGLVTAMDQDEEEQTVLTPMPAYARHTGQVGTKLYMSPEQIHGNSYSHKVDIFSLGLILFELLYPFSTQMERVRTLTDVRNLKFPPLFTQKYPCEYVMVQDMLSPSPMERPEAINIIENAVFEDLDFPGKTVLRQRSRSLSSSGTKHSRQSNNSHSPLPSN
PERK oligomers in HEK-293 cells, sequence (Q9NZJ5 30-1116): as above

With CNc1ncc2cc(-c3cccc(NS(=O)(=O)c4cc(Cl)cnc4OC)c3F)c(NC)nc2n1 [Compound 16] as the compound, how does the pIC50 [1] read?
Its pIC50 is no less than 7.00.

What about the pEC50 [2] of the same compound?
Its pEC50 is 6.57.

And the “effect on MV-4-11 tumor growth” value [3]?
The value was “tumor regression”.
